According to patent publication US9499550B2 (BRISTOL-MYERS SQUIBB COMPANY, priority 2012, dated 2016):
pEC50: −log10 of the molar value. Where two headings read alike, the source gives them in different places.

Key:
[1] = test system: HCV genotype 1b (Con1) replicon in HUH-7 cells; experiment: HCV replicon luciferase reporter assay, genotype 1b; assay type: cell-based; settings: Hepatitis C virus, Huh-7, 72 h, HCV genotype 1b replicon luciferase, 3 days incubation
Summary of the method: (§1)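 Replicon inhibition for both genotypes was measured as Renilla luciferase signal (EnduRen, 7.5 μM final, 2 h) after 3-day, 37° C exposure of replicon-bearing HUH-7 cells in 4% FCS DMEM, 0.5% DMSO. The 1b construct carries S1179I; the 1a H77 construct carries P1496L and S2204I. Twenty-point, 3-fold dilutions were fitted four-parametrically for EC50, and CC50 was taken from multiplexed Cell Titer-Blue.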

[2] = test system: HCV genotype 1a (H77 strain) replicon in HUH-7 cells; experiment: HCV replicon luciferase reporter assay, genotype 1a; assay type: cell-based; settings: Hepatitis C virus, Huh-7, 72 h, HCV genotype 1a replicon luciferase, 3 days incubation
Summary of the method: as §1

## [2H]C([2H])([2H])C(OC(=O)N[C@@H]1C(=O)N2C[C@H](Oc3nccc4c5c(ccc34)N(C)CCO5)C[C@H]2C(=O)N[C@]2(C(=O)NS(=O)(=O)C3CC3)C[C@H]2/C=C\CC[C@@H](C)C[C@H]1C)(C([2H])([2H])[2H])C([2H])([2H])[2H] [Compound 5288, 1,1,1,3,3,3-hexadeutero-2-(trideuteromethyl)propan-2-yl((2R,6S,7R,9R,13aS,14aR,16aS,Z)-14a-((cyclopropylsulfonyl)carbamoyl)-7,9-dimethyl-2-((4-methyl-3,4-dihydro-2H-[1,4]oxazino[2,3-f]isoquinolin-7-yl)oxy)-5,16-dioxo-1,2,3,5,6,7,8,9,10,11,13a,14,14a,15,16,16a-hexadecahydrocyclopropa[e]pyrrolo[1,2-a][1,4]diazacyclopentadecin-6-yl)carbamate]
[1]; read-out: LE_1b (EC50, range)
  pEC50: > 8.26
[2]; read-out: LE_1a (EC50, range)
  pEC50: > 8.26

## C[C@H]1CC/C=C\[C@@H]2C[C@@]2(C(=O)NS(=O)(=O)C2CC2)NC(=O)[C@@H]2C[C@@H](Oc3nccc4c5c(ccc34)N(C)CCO5)CN2C(=O)[C@@H](NC(=O)c2ccc(N(C)C)cc2)[C@H](C)C1 [Compound 5289, (2R,6S,7R,9S,13aS,14aR,16aS,Z)—N-(cyclopropylsulfonyl)-6-(4-(dimethylamino)benzamido)-7,9-dimethyl-2-((4-methyl-3,4-dihydro-2H-[1,4]oxazino[2,3-f]isoquinolin-7-yl)oxy)-5,16-dioxo-1,2,3,5,6,7,8,9,10,11,13a,14,14a,15,16,16a-hexadecahydrocyclopropa[e]pyrrolo[1,2-a][1,4]diazacyclopentadecine-14a-carboxamide]
[1]; read-out: LE_1b (EC50, range)
  pEC50: > 8.26
[2]; read-out: LE_1a (EC50, range)
  pEC50: 6.99 to 8.32

## C[C@@H]1CC/C=C\[C@@H]2C[C@@]2(C(=O)NS(=O)(=O)C2CC2)NC(=O)[C@@H]2C[C@@H](Oc3nccc4c5c(ccc34)N(C)CCO5)CN2C(=O)[C@@H](NC(=O)c2ccc(N(C)C)cc2)[C@H](C)C1 [Compound 5290, (2R,6S,7R,9R,13aS,14aR,16aS,Z)—N-(cyclopropylsulfonyl)-6-(4-(dimethylamino)benzamido)-7,9-dimethyl-2-((4-methyl-3,4-dihydro-2H-[1,4]oxazino[2,3-f]isoquinolin-7-yl)oxy)-5,16-dioxo-1,2,3,5,6,7,8,9,10,11,13a,14,14a,15,16,16a-hexadecahydrocyclopropa[e]pyrrolo[1,2-a][1,4]diazacyclopentadecine-14a-carboxamide]
[1]; read-out: LE_1b (EC50)
  pEC50: 9.19
[1]; read-out: LE_1b (EC50, range)
  pEC50: > 8.26
[2]; read-out: LE_1a (EC50)
  pEC50: 8.90
[2]; read-out: LE_1a (EC50, range)
  pEC50: > 8.26

## C[C@H]1CC/C=C\[C@@H]2C[C@@]2(C(=O)NS(=O)(=O)C2CC2)NC(=O)[C@@H]2C[C@@H](Oc3nccc4c5c(ccc34)N(C)CCO5)CN2C(=O)[C@@H](NC(=O)O[C@@H]2C[C@@H]3C[C@@H]3C2)[C@H](C)C1 [Compound 5291, (1R,3r,5 S)-bicyclo[3.1.0]hexan-3-yl((2R,6S,7R,9S,13aS,14aR,16aS,Z)-14a-((cyclopropylsulfonyl)carbamoyl)-7,9-dimethyl-2-((4-methyl-3,4-dihydro-2H-[1,4]oxazino[2,3-f]isoquinolin-7-yl)oxy)-5,16-dioxo-1,2,3,5,6,7,8,9,10,11,13a,14,14a,15,16,16a-hexadecahydrocyclopropa[e]pyrrolo[1,2-a][1,4]diazacyclopentadecin-6-yl)carbamate]
[1]; read-out: LE_1b (EC50, range)
  pEC50: > 8.26
[2]; read-out: LE_1a (EC50, range)
  pEC50: > 8.26

## C[C@@H]1CC/C=C\[C@@H]2C[C@@]2(C(=O)NS(=O)(=O)C2CC2)NC(=O)[C@@H]2C[C@@H](Oc3nccc4c5c(ccc34)N(C)CCO5)CN2C(=O)[C@@H](NC(=O)O[C@@H]2C[C@@H]3C[C@@H]3C2)[C@H](C)C1 [Compound 5292, (1R,3r,5S)-bicyclo[3.1.0]hexan-3-yl((2R,6S,7R,9R,13aS,14aR,16aS,Z)-14a-((cyclopropylsulfonyl)carbamoyl)-7,9-dimethyl-2-((4-methyl-3,4-dihydro-2H-[1,4]oxazino[2,3-f]isoquinolin-7-yl)oxy)-5,16-dioxo-1,2,3,5,6,7,8,9,10,11,13a,14,14a,15,16,16a-hexadecahydrocyclopropa[e]pyrrolo[1,2-a][1,4]diazacyclopentadecin-6-yl)carbamate]
[1]; read-out: LE_1b (EC50, range)
  pEC50: > 8.26
[2]; read-out: LE_1a (EC50, range)
  pEC50: > 8.26

## C[C@H]1CC/C=C\[C@@H]2C[C@@]2(C(=O)NS(=O)(=O)C2(C)CC2)NC(=O)[C@@H]2C[C@@H](Oc3nccc4c5c(ccc34)N(C)CCO5)CN2C(=O)[C@@H](NC(=O)OC(C)(C)C)[C@H](C)C1 [Compound 5293, tert-butyl ((2R,6S,7R,9S,13aS,14aR,16aS,Z)-7,9-dimethyl-2-((4-methyl-3,4-dihydro-2H-[1,4]oxazino[2,3-f]isoquinolin-7-yl)oxy)-14a-(((1-methylcyclopropyl)sulfonyl)carbamoyl)-5,16-dioxo-1,2,3,5,6,7,8,9,10,11,13a,14,14a,15,16,16a-hexadecahydrocyclopropa[e]pyrrolo[1,2-a][1,4]diazacyclopentadecin-6-yl)carbamate]
[1]; read-out: LE_1b (EC50, range)
  pEC50: > 8.26
[2]; read-out: LE_1a (EC50, range)
  pEC50: 6.99 to 8.32

## C[C@@H]1CC/C=C\[C@@H]2C[C@@]2(C(=O)NS(=O)(=O)C2(C)CC2)NC(=O)[C@@H]2C[C@@H](Oc3nccc4c5c(ccc34)N(C)CCO5)CN2C(=O)[C@@H](NC(=O)OC(C)(C)C)[C@H](C)C1 [Compound 5294, tert-butyl ((2R,6S,7R,9R,13aS,14aR,16aS,Z)-7,9-dimethyl-2-((4-methyl-3,4-dihydro-2H-[1,4]oxazino[2,3-f]isoquinolin-7-yl)oxy)-14a-(((1-methylcyclopropyl)sulfonyl)carbamoyl)-5,16-dioxo-1,2,3,5,6,7,8,9,10,11,13a,14,14a,15,16,16a-hexadecahydrocyclopropa[e]pyrrolo[1,2-a][1,4]diazacyclopentadecin-6-yl)carbamate]
[1]; read-out: LE_1b (EC50, range)
  pEC50: > 8.26
[2]; read-out: LE_1a (EC50, range)
  pEC50: > 8.26

## C[C@H]1CC/C=C\[C@@H]2C[C@@]2(C(=O)NS(=O)(=O)C2(C)CC2)NC(=O)[C@@H]2C[C@@H](Oc3nccc4c5c(ccc34)N(C)CCO5)CN2C(=O)[C@@H](NC(=O)OC(C)(C)C(F)(F)F)[C@H](C)C1 [Compound 5295, 1,1,1-trifluoro-2-methylpropan-2-yl((2R,6S,7R,9S,13aS,14aR,16aS,Z)-7,9-dimethyl-2-((4-methyl-3,4-dihydro-2H-[1,4]oxazino[2,3-f]isoquinolin-7-yl)oxy)-14a-(((1-methylcyclopropyl)sulfonyl)carbamoyl)-5,16-dioxo-1,2,3,5,6,7,8,9,10,11,13a,14,14a,15,16,16a-hexadecahydrocyclopropa[e]pyrrolo[1,2-a][1,4]diazacyclopentadecin-6-yl)carbamate]
[1]; read-out: LE_1b (EC50, range)
  pEC50: > 8.26
[2]; read-out: LE_1a (EC50, range)
  pEC50: 6.99 to 8.32

## C[C@@H]1CC/C=C\[C@@H]2C[C@@]2(C(=O)NS(=O)(=O)C2(C)CC2)NC(=O)[C@@H]2C[C@@H](Oc3nccc4c5c(ccc34)N(C)CCO5)CN2C(=O)[C@@H](NC(=O)OC(C)(C)C(F)(F)F)[C@H](C)C1 [Compound 5296, 1,1,1-trifluoro-2-methylpropan-2-yl((2R,6S,7R,9R,13aS,14aR,16aS,Z)-7,9-dimethyl-2-((4-methyl-3,4-dihydro-2H-[1,4]oxazino[2,3-f]isoquinolin-7-yl)oxy)-14a-(((1-methylcyclopropyl)sulfonyl)carbamoyl)-5,16-dioxo-1,2,3,5,6,7,8,9,10,11,13a,14,14a,15,16,16a-hexadecahydrocyclopropa[e]pyrrolo[1,2-a][1,4]diazacyclopentadecin-6-yl)carbamate]
[1]; read-out: LE_1b (EC50, range)
  pEC50: > 8.26
[2]; read-out: LE_1a (EC50, range)
  pEC50: > 8.26

## [2H]C([2H])([2H])C(OC(=O)N[C@@H]1C(=O)N2C[C@H](Oc3nccc4c5c(ccc34)N(C)CCO5)C[C@H]2C(=O)N[C@]2(C(=O)NS(=O)(=O)C3(C)CC3)C[C@H]2/C=C\CC[C@H](C)C[C@H]1C)(C([2H])([2H])[2H])C(F)(F)F [Compound 5297, 1,1,1,3,3,3-hexadeutero-2-(trifluoromethyl)propan-2-yl((2R,6S,7R,9S,13aS,14aR,16aS,Z)-7,9-dimethyl-2-((4-methyl-3,4-dihydro-2H-[1,4]oxazino[2,3-f]isoquinolin-7-yl)oxy)-14a-(((1-methylcyclopropyl)sulfonyl)carbamoyl)-5,16-dioxo-1,2,3,5,6,7,8,9,10,11,13a,14,14a,15,16,16a-hexadecahydrocyclopropa[e]pyrrolo[1,2-a][1,4]diazacyclopentadecin-6-yl)carbamate]
[1]; read-out: LE_1b (EC50)
  pEC50: 8.50
[1]; read-out: LE_1b (EC50, range)
  pEC50: > 8.26
[2]; read-out: LE_1a (EC50)
  pEC50: 8.15
[2]; read-out: LE_1a (EC50, range)
  pEC50: 6.99 to 8.32

## [2H]C([2H])([2H])C(OC(=O)N[C@@H]1C(=O)N2C[C@H](Oc3nccc4c5c(ccc34)N(C)CCO5)C[C@H]2C(=O)N[C@]2(C(=O)NS(=O)(=O)C3(C)CC3)C[C@H]2/C=C\CC[C@@H](C)C[C@H]1C)(C([2H])([2H])[2H])C(F)(F)F [Compound 5298, 1,1,1,3,3,3-hexadeutero-2-(trifluoromethyl)propan-2-yl((2R,6S,7R,9R,13aS,14aR,16aS,Z)-7,9-dimethyl-2-((4-methyl-3,4-dihydro-2H-[1,4]oxazino[2,3-f]isoquinolin-7-yl)oxy)-14a-(((1-methylcyclopropyl)sulfonyl)carbamoyl)-5,16-dioxo-1,2,3,5,6,7,8,9,10,11,13a,14,14a,15,16,16a-hexadecahydrocyclopropa[e]pyrrolo[1,2-a][1,4]diazacyclopentadecin-6-yl)carbamate]
[1]; read-out: LE_1b (EC50, range)
  pEC50: > 8.26
[2]; read-out: LE_1a (EC50, range)
  pEC50: > 8.26
